Data: the supplement of paper PMC10307832

Assays:
Assay in all cases: relative viability (nuclei count vs DMSO), 5 days (fraction); higher = more cells survive
[1] = tested on: HCC-78
How it was run: (§1)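 Relative viability divides the nuclei count in treated wells by that in vehicle wells. Lung cancer cell lines were seeded in 1536-well plates, dosed by pin tool the next day, and fixed and stained after 5 days in one step with final 0.05% Triton X-100, 1% formaldehyde and 1 ug/ml Hoechst. Dosing was a single drug or a fixed anchor-drug dose plus five library-drug doses (not always all listed) in √10 steps, and values are medians of duplicate plates imaged at 4×.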

[2] = tested on: COR-L 105
How it was run: as §1

[3] = tested on: HOP-62
How it was run: as §1

[4] = tested on: NCI-H1915
How it was run: as §1

[5] = tested on: NCI-H460
How it was run: as §1

[6] = tested on: NCI-H1666
How it was run: as §1

[7] = tested on: NCI-H2009
How it was run: as §1

[8] = tested on: EPLC-272H
How it was run: as §1

[9] = tested on: SK-LU-1
How it was run: as §1

[10] = tested on: NCI-H358
How it was run: as §1

[11] = tested on: NCI-H1792
How it was run: as §1

[12] = tested on: NCI-H1793
How it was run: as §1

[13] = tested on: A-427
How it was run: as §1

[14] = tested on: HCC-366
How it was run: as §1

[15] = tested on: NCI-H1944
How it was run: as §1

[16] = tested on: UMC-11
How it was run: as §1

[17] = tested on: LC-2-ad
How it was run: as §1

[18] = tested on: LU99A
How it was run: as §1

[19] = tested on: NCI-H2170
How it was run: as §1

[20] = tested on: NCI-H2085
How it was run: as §1

[21] = tested on: LXF-289
How it was run: as §1

SMILES: O=c1cc(N2CCOCC2)oc2c(-c3cccc4c3sc3ccccc34)cccc12 + CS(=O)(=O)N1CCN(Cc2cc3nc(-c4cccc5[nH]ncc45)nc(N4CCOCC4)c3s2)CC1 [Pictilisib] (partner 1 µM)
- relative viability ([1]; first compound 0.01 µM): 0.209
- relative viability ([1]; first compound 0.03162 µM): 0.204
- relative viability ([1]; first compound 0.1 µM): 0.178
- relative viability ([1]; first compound 0.3162 µM): 0.242
- relative viability ([1]; first compound 1 µM): 0.191
- relative viability ([2]; first compound 0.01 µM): 0.347
- relative viability ([2]; first compound 0.03162 µM): 0.394
- relative viability ([2]; first compound 0.1 µM): 0.49
- relative viability ([2]; first compound 0.3162 µM): 0.422
- relative viability ([2]; first compound 1 µM): 0.439
- relative viability ([3]; first compound 0.01 µM): 0.755
- relative viability ([3]; first compound 0.03162 µM): 0.696
- relative viability ([3]; first compound 0.1 µM): 0.594
- relative viability ([3]; first compound 0.3162 µM): 0.649
- relative viability ([3]; first compound 1 µM): 0.697
- relative viability ([4]; first compound 0.01 µM): 0.953
- relative viability ([4]; first compound 0.03162 µM): 0.975
- relative viability ([4]; first compound 0.1 µM): 1.08
- relative viability ([4]; first compound 0.3162 µM): 0.99
- relative viability ([4]; first compound 1 µM): 0.909
- relative viability ([5]; first compound 0.01 µM): 0.403
- relative viability ([5]; first compound 0.03162 µM): 0.342
- relative viability ([5]; first compound 0.1 µM): 0.394
- relative viability ([5]; first compound 0.3162 µM): 0.384
- relative viability ([5]; first compound 1 µM): 0.319
- relative viability ([6]; first compound 0.01 µM): 0.443
- relative viability ([6]; first compound 0.03162 µM): 0.483
- relative viability ([6]; first compound 0.1 µM): 0.504
- relative viability ([6]; first compound 0.3162 µM): 0.412
- relative viability ([6]; first compound 1 µM): 0.339
- relative viability ([7]; first compound 0.01 µM): 0.802
- relative viability ([7]; first compound 0.03162 µM): 0.864
- relative viability ([7]; first compound 0.1 µM): 0.735
- relative viability ([7]; first compound 0.3162 µM): 0.796
- relative viability ([7]; first compound 1 µM): 0.813
- relative viability ([8]; first compound 0.01 µM): 0.108
- relative viability ([8]; first compound 0.03162 µM): 0.242
- relative viability ([8]; first compound 0.3162 µM): 0.374
- relative viability ([8]; first compound 1 µM): 0.31
- relative viability ([9]; first compound 0.01 µM): 0.609
- relative viability ([9]; first compound 0.03162 µM): 0.604
- relative viability ([9]; first compound 0.1 µM): 0.527
- relative viability ([9]; first compound 0.3162 µM): 0.481
- relative viability ([9]; first compound 1 µM): 0.587
- relative viability ([10]; first compound 0.01 µM): 0.339
- relative viability ([10]; first compound 0.03162 µM): 0.353
- relative viability ([10]; first compound 0.1 µM): 0.338
- relative viability ([10]; first compound 0.3162 µM): 0.307
- relative viability ([10]; first compound 1 µM): 0.318
- relative viability ([11]; first compound 0.01 µM): 0.286
- relative viability ([11]; first compound 0.03162 µM): 0.264
- relative viability ([11]; first compound 0.1 µM): 0.244
- relative viability ([11]; first compound 0.3162 µM): 0.274
- relative viability ([11]; first compound 1 µM): 0.252
- relative viability ([12]; first compound 0.01 µM): 0.289
- relative viability ([12]; first compound 0.03162 µM): 0.348
- relative viability ([12]; first compound 0.1 µM): 0.336
- relative viability ([12]; first compound 0.3162 µM): 0.335
- relative viability ([12]; first compound 1 µM): 0.35
- relative viability ([13]; first compound 0.01 µM): 0.902
- relative viability ([13]; first compound 0.03162 µM): 0.8
- relative viability ([13]; first compound 0.1 µM): 0.68
- relative viability ([13]; first compound 0.3162 µM): 0.635
- relative viability ([13]; first compound 1 µM): 0.742
- relative viability ([14]; first compound 0.01 µM): 0.197
- relative viability ([14]; first compound 0.03162 µM): 0.154
- relative viability ([14]; first compound 0.1 µM): 0.1
- relative viability ([14]; first compound 0.3162 µM): 0.154
- relative viability ([14]; first compound 1 µM): 0.137
- relative viability ([15]; first compound 0.01 µM): 0.349
- relative viability ([15]; first compound 0.03162 µM): 0.336
- relative viability ([15]; first compound 0.1 µM): 0.349
- relative viability ([15]; first compound 0.3162 µM): 0.348
- relative viability ([15]; first compound 1 µM): 0.35
- relative viability ([16]; first compound 0.01 µM): 0.812
- relative viability ([16]; first compound 0.03162 µM): 0.825
- relative viability ([16]; first compound 0.1 µM): 0.773
- relative viability ([16]; first compound 0.3162 µM): 0.819
- relative viability ([16]; first compound 1 µM): 0.796
- relative viability ([17]; first compound 0.01 µM): 0.39
- relative viability ([17]; first compound 0.1 µM): 0.578
- relative viability ([17]; first compound 0.3162 µM): 0.456
- relative viability ([17]; first compound 1 µM): 0.526
- relative viability ([18]; first compound 0.01 µM): 0.384
- relative viability ([18]; first compound 0.03162 µM): 0.3
- relative viability ([18]; first compound 0.1 µM): 0.333
- relative viability ([18]; first compound 0.3162 µM): 0.367
- relative viability ([18]; first compound 1 µM): 0.343
- relative viability ([19]; first compound 0.01 µM): 0.299
- relative viability ([19]; first compound 0.03162 µM): 0.331
- relative viability ([19]; first compound 0.1 µM): 0.369
- relative viability ([19]; first compound 0.3162 µM): 0.375
- relative viability ([19]; first compound 1 µM): 0.344
- relative viability ([20]; first compound 0.01 µM): 0.469
- relative viability ([20]; first compound 0.03162 µM): 0.467
- relative viability ([20]; first compound 0.1 µM): 0.553
- relative viability ([20]; first compound 0.3162 µM): 0.464
- relative viability ([20]; first compound 1 µM): 0.405
- relative viability ([21]; first compound 0.01 µM): 0.877
- relative viability ([21]; first compound 0.03162 µM): 0.815
- relative viability ([21]; first compound 0.1 µM): 0.881
- relative viability ([21]; first compound 0.3162 µM): 0.754
- relative viability ([21]; first compound 1 µM): 0.843
